From ChEMBL document CHEMBL1138806, “A cyclopent-2-enecarbonyl group mimics proline at the P2 position of prolyl oligopeptidase inhibitors” (J Med Chem, 2004)
pIC50, pKi: −log10 of the molar value.

What was measured:
Prolyl endopeptidase [1] = molecular target: T1, Prolyl endopeptidase (Sus scrofa, UniProt P23687); assay: Inhibitory activity against purified porcine prolyl oligopeptidase
Prolyl endopeptidase [2] = molecular target: T1, Prolyl endopeptidase; assay: Inhibitory activity against prolyl oligopeptidase of porcine brain homogenate
[3] = Partition coefficient (logP) determined in a 1-octanol-phosphate buffer system; type: physicochemical

T1 sequence (P23687 whole entry): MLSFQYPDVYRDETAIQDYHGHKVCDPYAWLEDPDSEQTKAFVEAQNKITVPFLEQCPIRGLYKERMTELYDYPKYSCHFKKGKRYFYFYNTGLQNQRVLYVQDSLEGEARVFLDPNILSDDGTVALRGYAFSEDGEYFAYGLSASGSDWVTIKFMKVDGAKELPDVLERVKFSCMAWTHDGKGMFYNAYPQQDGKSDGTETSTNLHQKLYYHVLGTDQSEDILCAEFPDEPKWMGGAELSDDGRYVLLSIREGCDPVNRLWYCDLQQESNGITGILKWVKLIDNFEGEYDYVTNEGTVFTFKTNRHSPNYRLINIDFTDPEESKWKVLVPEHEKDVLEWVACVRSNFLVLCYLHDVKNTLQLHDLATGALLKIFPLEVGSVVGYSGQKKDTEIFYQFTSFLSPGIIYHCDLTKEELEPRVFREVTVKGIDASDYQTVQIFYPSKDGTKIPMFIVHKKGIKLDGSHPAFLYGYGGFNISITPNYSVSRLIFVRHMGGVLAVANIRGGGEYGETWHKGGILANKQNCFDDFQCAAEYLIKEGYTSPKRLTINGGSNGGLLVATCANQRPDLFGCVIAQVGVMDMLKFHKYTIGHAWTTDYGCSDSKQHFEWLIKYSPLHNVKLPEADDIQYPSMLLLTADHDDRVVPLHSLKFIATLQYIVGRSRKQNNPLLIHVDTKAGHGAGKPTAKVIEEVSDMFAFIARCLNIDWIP

Structure (SMILES) | pKi (Prolyl endopeptidase [1]) | pIC50 (Prolyl endopeptidase [2]) | logP [3]
N#C[C@@H]1CCCN1C(=O)[C@H]1CCC=C1C(=O)CCCc1ccccc1 |  | 8.30 | 
O=C(NCc1ccccc1)C1=C(C(=O)N2CCCC2)CCC1 |  | 6.64 | 
O=C([C@@H]1CCCN1C(=O)CCCc1ccccc1)N1CCCC1 |  |  | 1.8
N#C[C@@H]1CCCN1C(=O)[C@@H]1CCCN1C(=O)CCCc1ccccc1 |  |  | 1.6
O=C(NCc1ccccc1)C1=CCC[C@@H]1C(=O)N1CCC[C@H]1C(=O)CO |  | 7.28 | 

Results, then the compound that gave them:

pKi (Prolyl endopeptidase [1]) | pIC50 (Prolyl endopeptidase [2]) | logP [3] | Structure (SMILES)
10.22 | 9.70 | 0.2 | O=C(CO)[C@@H]1CCCN1C(=O)[C@@H]1CCCN1C(=O)NCc1ccccc1
9.82 | 9.52 | 0.6 | O=C(NCc1ccccc1)C1=CCC[C@H]1C(=O)N1CCC[C@H]1C(=O)CO
10.52 | 9.70 | 2.4 | N#C[C@@H]1CCCN1C(=O)[C@@H]1CCC=C1C(=O)CCCc1ccccc1
